Source: patent publication US12570641B2, “Solid forms of a CDK4 inhibitor” (Pfizer Inc., priority 2020, dated 2026)

Test: Solid-state photostability (2x ICH light exposure)
Format: physicochemical
Protocol: Solid-state photostability of PF-07220060 monohydrate (Form 2) was evaluated after light exposure equivalent to 2× International Conference on Harmonisation (ICH) guidelines.

[1] = UV/Fluor, 2x ICH light exposure

solid form change by PXRD (2×CH condition): no form change
change in appearance compared to the dark control sample (2×CH photostability sample): No significant change in appearance
growth of individual impurities (2×CH photostability samples): ≤ 0.2%
total impurities (2×CH photostability samples): ≤ 2.0%
% impurity RRT 0.74 (Dark control (wrapped in foil)): NMT = 0.05%
% impurity RRT 0.87 (Dark control (wrapped in foil)): 0.06%
% impurity RRT 1.02 (Dark control (wrapped in foil)): NMT = 0.05%
% impurity RRT 1.33 (Dark control (wrapped in foil)): 0.08%
% impurity RRT 0.74 [1]: 0.11%
% impurity RRT 0.87 [1]: 0.06%
% impurity RRT 1.02 [1]: 0.07%
% impurity RRT 1.33 [1]: 0.07%
Structure (SMILES): CC(C)n1c(C(C)(C)O)nc2c(F)cc(-c3nc(N[C@@H]4CCOC[C@H]4O)ncc3Cl)cc21 [Form 2, 1,5-anhydro-3-({5-chloro-4-[4-fluoro-2-(2-hydroxypropan-2-yl)-1-(propan-2-yl)-1H-benzimidazol-6-yl]pyrimidin-2-yl}amino)-2,3-dideoxy-D-threo-pentitol monohydrate]
